Reference: patent US20220362199A1, “ENRICHED POLYUNSATURATED FATTY ACID COMPOSITIONS” (NUSEED NUTRITIONAL US INC., priority 2019, published 2022)

Tested on: LPS-stimulated human peripheral blood mononuclear cells (PBMCs)
Test: In vitro inhibition of LPS-stimulated cytokine/chemokine/growth factor production (Milliplex 38-plex)
Assay type: cell-based
Settings: for Inhibitory scale (0-5): D1 PBMC, 1 ng/mL LPS, 0 = no or very minimal inhibition, 1 to 2.5 = IFNγ, IL-1 series, IP-10, MCP-1, 3 = TNFα also, above 3 = some T cell cytokines, 5 = all cytokines inhibited; for immunomodulatory response type: approximately 10 μM, stimulatory = signal above 130%, inhibitory = signal below 70% of LPS-stimulated control (no FFA added); for inhibitory activity on inflammatory cytokines: preliminary study, LPS-stimulated PBMC

CC/C=C\C/C=C\C/C=C\C/C=C\C/C=C\CCCCCC(=O)O [Syn DPA, DPA]
Inhibitory scale (0-5) (30 μM FFA preparation): 4.0
immunomodulatory response type: both stimulatory and inhibitory responses

Eicosatetraenoic acid [ETA]
inhibitory activity on inflammatory cytokines ([…]): significant inhibitory activity

CC/C=C\C/C=C\C/C=C\C/C=C\C/C=C\CCCCCC(=O)O [DPAn-3, Docosapentaenoic acid n-3]
inhibitory activity on inflammatory cytokines (fatty acid as primary component or at higher amount in the preparation): significant inhibitory activity

ETA [Syn ETA]
inhibitory effect on more than half the analytes (30 μM dose, >50% reduction compared to LPS-stimulated control): strong inhibitory effect
Inhibitory scale (0-5) ([…]): 4.75
immunomodulatory response type: both stimulatory and inhibitory responses
